# Patent publication US12022830B2, “Formulations of metal and ascorbic acid complexes, their obtaining and use” (INTERMAG SP. Z O.O., priority 2017, dated 2024)
# Legend:
# iceberg lettuce = assay: Vanadyl ascorbate in cultivation of iceberg lettuce, head mass, chlorophyll, flavonoids, nutrients; assay type: in vivo, Lactuca sativa; settings: foliar twice, total 10 g V/ha
# Source text: Iceberg cabbage lettuce (Lactuca sativa) of Rubette type was cultivated in a plastic tunnel in pots with a capacity of 3 l filled with a peat substrate. Titanil ascorbate at a 1:2 molar ratio of Ti: Asc (TiO(C6H7O6)2.2H2O) and liquid titanil ascorbate at a 1.5:1 molar ratio of (obtained in situ—according to the method of patent specification PL 163688 or PL 214628) were applied in a foliar manner twice during the entire cultivation, the concentration of titanium in the working liquid for both formulations was 0.00085% Ti. In two applications, the total titanium dose per hectare was 3.4 g Ti/ha. The experiment was performed in a random block system, combinations were drawn in 4 blocks. There were 20 lettuce plants for each combination.
# The experiment was performed analogously to the titanium complex at a 1:2 or 1.5:1 (Example 20) molar ratio of Ti:ascorbic acid. VO(C6H7O6)2.2H2O was used in the form of foliar spraying twice, vanadium concentration in the working liquid was 0.001% V. In two applications, the total micronutrient dose per hectare was 10 g V/ha.
# Foliar application of VO(C6H7O6)2.2H2O increased the mass of the lettuce head by 14% compared to the control. Furthermore, vanadium ascorbate at a 1:2 molar ratio of V:Asc increased the chlorophyll content. Also, differences were found in the level of flavonoid accumulation between the control object and the combination treated with VO(C6H7O6)2.2H2O.
# [1] = Study of solution stability for a given complex; assay type: physicochemical; settings: for stability of the solution among the complexes: complexes in the form of solutions
# [2] = tested on: Radish (Raphanus sativus) of Ronda type; assay: Vanadyl ascorbate in cultivation of radish; assay type: in vivo; settings: foliar twice, 0.004% V, total 20 g V/ha
# Method: Radish (Raphanus sativus) of Ronda type was cultivated in a plastic tunnel in a peat substrate. Vanadyl ascorbate at a 1:2 molar ratio of V:Asc (VO(C6H7O6)2.2H2O) was applied in the form of foliar spraying twice during the entire cultivation, vanadium concentration in the working liquid was 0.004% V. In two applications, the total vanadium dose per hectare was 20 g V/ha. The experiment was performed in a random block system, combinations were drawn in 4 blocks. There were 20 plants for each combination.
# Foliar application of vanadyl ascorbate VO(C6H7O6)2.2H2O has increased the mass of radish root by 12% compared to the control plants. […] Furthermore, in vanadium treated plants, the content of flavonoids responsible for protecting plant cells from oxidative stress, which is caused, among others, by through drought, has increased almost twice as compared to the control.
# [3] = tested on: fusarium foot and root rot; assay: Fusarium foot and root rot on wheat; assay type: in vivo
# [4] = tested on: celery (Apium graveolens); assay: Vanadyl ascorbate in cultivation of celery; assay type: in vivo; settings: for root mass increase compared to plants from the control object: celery; for Chlorophyll / Dry mass of leaves / Dry mass of root / Flavonoids / Mass of celery leaves / Mass of celery root: sprayed three times
# Method: Cultivation of celery (Apium graveolens) was carried out in a plastic tunnel in pots with a capacity of 3 l filled with peat substrate. Vanadyl ascorbate at a 1:2 molar ratio of V:Asc (VO(C6H7O6)2.2H2O) was applied three times during the entire cultivation in BBCH phases: 4-16 (4-6 leaves), 19-40 (10 and more leaves) and 42-44 (root development) in the form of fine-droplet spraying. Two vanadium doses of 5 g V/ha (0.001%) and 10 g V/ha (0.002%) were used. The experiment was performed in a random block system, combinations were drawn in 4 blocks. There were 20 celery plants for each combination.
# The mass of celery leaves has been increased both by the application of vanadium in the amount of 5 g and 10 g/ha. […] For a smaller dose, root mass has increased by 23%, while for a dose of 10 g V/ha by 11% compared to plants from the control object. A dose of 5 g V/ha positively influenced the quality parameters of celery, the dry mass of leaves, the content of chlorophyll and flavonoids have increased. However, a dose of 10 g V/ha contributed to the increase in dry mass of leaves and to the increase in content of flavonoids. The results of this experiment indicate a biostimulatory effect of low doses of vanadium on the utility yield increase of vegetable plants and its qualitative parameters.
# [5] = tested on: diseases affecting the plant spikes; assay: Vanadyl ascorbate on wheat of Figura type, diseases affecting the plant spikes; assay type: in vivo; settings: initial studies, analogous to the titanium complex
# Source text: (§1) In the case of diseases attacking spikes, on the control combination, infestation by Cladosporium herbarum at 20%, by Septoria nodorum at 10% and by Gibberella avenacea at 10% were found. On sprayed plants, infestations were 1%, 1% and 0% respectively.
# wheat of Figura type = settings: foliar, 32.6 g TiO(Asc)2.2H2O/ha, BBCH 22-29, 30-51, 51-73
# Method: (§2) The experiments on the effect of the formulations according to the invention (liquid preparation obtained after dissolving the solid blend, according to the invention) were performed on winter oilseed rape, winter wheat and corn plants at the Institute of Plant Protection in Poznan at the Experimental Station in Winna Góra.
# corn of Wilga type = settings: foliar, 32.6 g TiO(Asc)2.2H2O/ha, BBCH 12-14, 18-20, 35-39
# Method: as §2
# [6] = tested on: winter oilseed rape of Artoga type; settings: foliar, 32.6 g TiO(Asc)2.2H2O/ha, BBCH 21-36, 50-61, 69-73
# Method: as §2
# Botrytis cinerea = settings: foliar, 32.6 g TiO(Asc)2.2H2O/ha, three dates
# Method: as §2
# Alternaria brassicae = settings: foliar, 32.6 g TiO(Asc)2.2H2O/ha, three dates
# Method: as §2
# cabbage seed weevil = settings: foliar, 32.6 g TiO(Asc)2.2H2O/ha, three dates
# Method: as §2
# wheat = assay: Cultivation of wheat, chlorophyll content and uptake of nutrients; assay type: in vivo
# Method: Experiments for the use of titanium complex in the solid formulation TiO(Asc)2.2H2O on wheat were performed analogously to Example 14.
# (§3) The content of nutrients was tested in the aboveground parts of plants, based on dry mass content.
# corn borer moth = assay: Infestation of corn by corn borer moth; assay type: in vivo; settings: foliar, 32.6 g TiO(Asc)2.2H2O/ha, three dates
# Gibberella avenacea = assay: Infestation of wheat spikes by Gibberella avenacea; assay type: in vivo; settings: sprayed plants, control 10%
# Source text: as §1
# butterhead lettuce = assay: Cultivation of butterhead lettuce, uptake of nutrients; assay type: in vivo; settings: aboveground parts, dry mass, 20th day, two sprays, 0.0085% Ti
# Method: TiO(OH)(C6H7O6).1H2O was used in the amount of 9.7 g/ha (0.005%, 0.0085% Ti), (TiO(C6H7O6)2.2H2O) was used in the amount of 16.3 g/ha (0.008%, 0.0085% Ti), TiO(C6H7O6)3.3H2O was used in the amount of 22.9 g/ha (0.011%, 0.0085% Ti), TiO(C6H7O6)4.5H2O was used in the amount of 30.9 g/ha (0.015%, 0.0085% Ti) in a single spray after previously dissolving them in 200 l of water. The spraying was performed with a manual sprayer at the smallest possible drop setting. Plants were sprayed evenly from a distance of about 30 cm.
# Substrate: a mixture of peat deacidified with chalk (producer: Hollas) and rinsed quartz sand with a granulation of 4-8 mm. Volume ratio of the mixture: 1:4. Agrofoska (Intermag) fertiliser in the amount of 3 kg/m^3 was added to the substrate. Pots with a volume of about 3 l were used.
# Spraying was performed twice with the preparation with the same concentrations of working liquid: spray 1 on the 7th day of the experiment; spray 2 on the 14th day of the experiment.
# The experiment was randomised and there were 10 repetitions for each combination (1 repetition=one pot)
# as §3
# [7] = tested on: Iceberg cabbage lettuce (Lactuca sativa) of Rubette type; assay: Titanyl ascorbates in cultivation of iceberg lettuce, head mass, chlorophyll, flavonoids; assay type: in vivo; settings: foliar twice, 0.00085% Ti, total 3.4 g Ti/ha
# Method: Iceberg cabbage lettuce (Lactuca sativa) of Rubette type was cultivated in a plastic tunnel in pots with a capacity of 3 l filled with a peat substrate. […] In two applications, the total titanium dose per hectare was 3.4 g Ti/ha. The experiment was performed in a random block system, combinations were drawn in 4 blocks. […] Flavonoids are antioxidant compounds, they protect plant cell structures against reactive oxygen species formed under the influence of abiotic and biotic stress factors. These compounds are the first to be synthesised when unfavourable conditions of the growing environment occur.
# Septoria nodorum = assay: Infestation of wheat spikes by Septoria nodorum; assay type: in vivo; settings: sprayed plants, control 10%
# Source text: as §1
# Cladosporium herbarum = assay: Infestation of wheat spikes by Cladosporium herbarum; assay type: in vivo; settings: sprayed plants, control 20%
# Source text: as §1
# cereal leaf beetle = assay: Infestation of wheat by cereal leaf beetle; assay type: in vivo; settings: foliar, 32.6 g TiO(Asc)2.2H2O/ha, three dates
# fragility of stem base = assay: Infestation of wheat through the fragility of stem base; assay type: in vivo; settings: treated plants; control 48% infested plants
# [8] = aboveground parts, dry mass, 20th day
# [9] = 5% solution obtained by dissolving in water
structure (smiles),measurement,setting,value
"O.O.O=C1OC(C(O)CO)C([O-])=C1O.O=C1OC(C(O)CO)C([O-])=C1O.[O]=[V+2] (stereo not shown) [VO(C6H7O6)2•2H2O, vanadyl ascorbate]",Chlorophyll,"iceberg lettuce; iceberg lettuce, 0.001% V",29.6 μg/cm^2
same,Dry mass,"iceberg lettuce; iceberg lettuce, 0.001% V",6.85%
same,Flavonoids,"iceberg lettuce; iceberg lettuce, 0.001% V",0.29 μg/cm^2
same,Mass of lettuce head,"iceberg lettuce; iceberg lettuce, 0.001% V",78.2 g
same,increase of the mass of the lettuce head compared to the control,"iceberg lettuce; iceberg lettuce, 0.001% V",14%
same,Ca content,"iceberg lettuce; lettuce, g/kg d.c.",18.17 g/kg
same,K content,"iceberg lettuce; lettuce, g/kg d.c.",21.84 g/kg
same,Mg content,"iceberg lettuce; lettuce, g/kg d.c.",4.92 g/kg
same,P content,"iceberg lettuce; lettuce, g/kg d.c.",3.42 g/kg
same,S content,"iceberg lettuce; lettuce, g/kg d.c.",2.69 g/kg
same,stability of the solution among the complexes,[1],most stable
same,Chlorophyll,[2],19.1 μg/cm^2
same,Dry mass of root,[2],4.8%
same,Flavonoids,[2],0.88 μg/cm^2
same,Mass of radish root,[2],19.5 g
same,increase of the content of flavonoids compared to the control,[2],almost twice
same,increase of the mass of radish root compared to the control plants,[2],12%
same,effect on the elimination of symptoms caused by fusarium foot and root rot,"[3]; wheat of Figura type, initial studies, analogous to the titanium complex",positive effect
same,root mass increase compared to plants from the control object,[4]; dose of 5 g V/ha,23%
same,root mass increase compared to plants from the control object,[4]; dose of 10 g V/ha,11%
same,Chlorophyll,[4]; dose of 5 g V/ha (0.001%),35.0 μg/cm^2
same,Dry mass of leaves,[4]; dose of 5 g V/ha (0.001%),8.9%
same,Dry mass of root,[4]; dose of 5 g V/ha (0.001%),2.9%
same,Flavonoids,[4]; dose of 5 g V/ha (0.001%),0.77 μg/cm^2
same,Mass of celery leaves,[4]; dose of 5 g V/ha (0.001%),320.3 g
same,Mass of celery root,[4]; dose of 5 g V/ha (0.001%),90.7 g
same,Chlorophyll,[4]; dose of 10 g V/ha (0.002%),32.0 μg/cm^2
same,Dry mass of leaves,[4]; dose of 10 g V/ha (0.002%),9.5%
same,Dry mass of root,[4]; dose of 10 g V/ha (0.002%),3.1%
same,Flavonoids,[4]; dose of 10 g V/ha (0.002%),0.72 μg/cm^2
same,Mass of celery leaves,[4]; dose of 10 g V/ha (0.002%),317.3 g
same,Mass of celery root,[4]; dose of 10 g V/ha (0.002%),78.5 g
same,effect on the elimination of symptoms caused by diseases affecting the plant spikes,[5],positive effect
"O.O.O=C1OC(C(O)CO)C([O-])=C1O.O=C1OC(C(O)CO)C([O-])=C1O.[O]=[Ti+2] (stereo not shown) [TiO(C6H7O6)2•2H2O, titanyl ascorbate]",Wheat yield increased compared to the control combination,wheat of Figura type,16 % (m/m)
same,Corn yield increased compared to the control combination,corn of Wilga type,13 % (m/m)
same,Rape yield increased compared to the control combination,[6],15%
same,Infestation of siliques by Botrytis cinerea smaller than the control combination,Botrytis cinerea,77%
same,Infestation of siliques by Alternaria brassicae smaller than the control combination,Alternaria brassicae,52%
same,Siliques damaged by cabbage seed weevil fewer than in the control combination,cabbage seed weevil,80%
same,Content of chlorophyll in leaves,wheat; 20th day of the experiment,48.03 SPAD
same,Fe content,wheat; [8],85.056 mg/kg
same,K content,wheat; [8],55.27 g/kg
same,P content,wheat; [8],10.43 g/kg
same,Ti content,wheat; [8],1.390 mg/kg
same,Zn content,wheat; [8],48.850 mg/kg
same,decrease in the infestation by corn borer moth in comparison to untreated plants,corn borer moth,43%
same,infestation by Gibberella avenacea,Gibberella avenacea,0%
same,stable during long storage,[1]; [9],up to 12 months
same,temperature at which the solution remains stable,[1]; [9],−5 to +40 °C
same,behaviour after freezing and thawing,"[1]; 5% solution, overcooled below −7° C., then raised above 0° C.",retains its original physicochemical properties
same,stability of the solution among the complexes,[1],most stable
same,B content,butterhead lettuce,83.31 mg/kg
same,Ca content,butterhead lettuce,17.41 g/kg
same,Cu content,butterhead lettuce,7.13 mg/kg
same,Fe content,butterhead lettuce,794.44 mg/kg
same,K content,butterhead lettuce,7.48 g/kg
same,Mg content,butterhead lettuce,6.66 g/kg
same,Mn content,butterhead lettuce,687.51 mg/kg
same,S content,butterhead lettuce,7.41 g/kg
same,Ti content,butterhead lettuce,4.27 mg/kg
same,Zn content,butterhead lettuce,154.18 mg/kg
same,symptoms of fusarium foot and root rot,"[3]; sprayed plants, control 12% of infestations",not any symptoms
same,Chlorophyll,[7],27.4 μg/cm^2
same,Dry mass,[7],7.23 g
same,Flavonoids,[7],0.32 μg/cm^2
same,Mass of head,[7],82.8 g
same,infestation by Septoria nodorum,Septoria nodorum,1%
same,infestation by Cladosporium herbarum,Cladosporium herbarum,1%
same,decrease in the infestation by cereal leaf beetle in comparison to untreated plants,cereal leaf beetle,74%
same,infestation through the fragility of stem base,fragility of stem base,4%
